Laboratory results published in patent publication US20260124170A1, “PHARMACEUTICAL COMPOSITION COMPRISING METABOLITE OF ENAVOGLIFLOZIN, AND USE THEREOF” (DAEWOONG PHARMACEUTICAL CO., LTD., priority 2022, published 2026).
Values joined by “and” are separate entries in the source; they are usually repeats but may differ in a detail not shown here. Equal values may be shown once. Read-outs that look alike come from different tables or passages of the source.

How the values were obtained:
SGLT1 [1] = target: T1, SGLT1 (Homo sapiens, UniProt P13866); experiment: Change in SGLT1 inhibition according to drug pretreatment time (CHO-SGLT1); assay type: cell-based; conditions: for IC50: CHO-SGLT1; for Change in SGLT1 inhibition as exposure time increased: pretreatment 0, 1, 2 h, one-way ANOVA
T1 construct: expressed in transfected cells
T1 sequence (P13866 1-664): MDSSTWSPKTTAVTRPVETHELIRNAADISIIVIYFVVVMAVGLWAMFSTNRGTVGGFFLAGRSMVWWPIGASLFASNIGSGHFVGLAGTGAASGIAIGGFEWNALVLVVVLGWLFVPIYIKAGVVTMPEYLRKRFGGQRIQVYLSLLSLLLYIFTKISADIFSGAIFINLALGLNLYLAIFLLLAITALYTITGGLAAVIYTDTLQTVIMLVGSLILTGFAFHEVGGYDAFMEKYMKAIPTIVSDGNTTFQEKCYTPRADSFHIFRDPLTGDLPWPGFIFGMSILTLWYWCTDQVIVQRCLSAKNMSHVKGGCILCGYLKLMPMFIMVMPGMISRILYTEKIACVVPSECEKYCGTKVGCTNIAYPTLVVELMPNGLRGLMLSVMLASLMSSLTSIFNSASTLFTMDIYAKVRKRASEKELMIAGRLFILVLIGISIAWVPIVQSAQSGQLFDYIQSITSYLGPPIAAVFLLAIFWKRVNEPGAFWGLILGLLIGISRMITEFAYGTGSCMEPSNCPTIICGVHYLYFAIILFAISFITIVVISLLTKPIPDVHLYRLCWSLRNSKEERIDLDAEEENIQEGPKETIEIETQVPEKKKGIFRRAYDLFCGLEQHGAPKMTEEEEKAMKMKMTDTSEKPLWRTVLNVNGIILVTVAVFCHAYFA
From the text: (§1) All data values are expressed as the mean±SD of […].

normal rats = experiment: Oral glucose tolerance test (OGTT) after intravenous administration; assay type: in vivo, rat; conditions: 1 mg/kg intravenous; for Glucose tolerance inhibition rate improved compared to the vehicle (blood glucose AUC): AUC for 120 minutes; for Glucose tolerance in OGTT: glucose 2 g/kg
Protocol: Enavogliflozin, M1, or M2 was intravenously administered once to normal rats, and antidiabetic efficacy was evaluated.
To perform the oral glucose tolerance test (OGTT) and examine urinary glucose excretion (UGE), enavogliflozin, M1, or M2 was administered intravenously to male 8-week-old normal rats at a dose of 1 mg/kg, and then a glucose solution (2 g/kg) was administered to load blood sugar. The blood sugar level was measured before glucose solution administration and at 5, 10, 15, 20, 30, 40, 60, 90, and 120 minutes after the administration to evaluate oral glucose tolerance. In addition, the UGE was evaluated by measuring the amount of glucose excreted in the urine 6, 24, 48, and 72 hours after the administration of the glucose solution.

SGLT1 [2] = target: T1, SGLT1; experiment: Inhibition of [14C]AMG uptake in SGLT1-overexpressing CHO cells; assay type: cell-based; conditions: IC50 (nM) SGLT1 mean ± SD (n = 3), 10 μM [14C]AMG, 2 h, 37° C.
Protocol: An SGLT1-overexpressing cell line (CHO-SGLT1 stable cells) and mock cells (CHO-mock cells) were cultured to reach 80% confluency, and then the cells were seeded in 96-well plates at 1×10^5 cells/well.
After 24 hours, the medium was removed, and a pre-incubation buffer [10 mM hydroxyethylpiperazine ethane sulfonic acid (HEPES), 5 mM Tris, 140 mM choline chloride, 2 mM KCl, 1 mM CaCl2), 1 mM MgCl2, pH 7.4] was added, and the cells were cultured for one hour.
After one hour, the pre-incubation buffer was removed, and an incubation buffer [10 mM HEPES, 5 mM Tris, 140 mM NaCl, 2 mM KCl, 1 mM CaCl2), 1 mM MgCl2, pH 7.4] containing 10 μM [^14C] methyl α-D-glucopyranoside (AMG), a substrate of SGLT1, and inhibitory evaluation substances at various concentrations was added and allowed to react in a thermo micro mixer at 37° C. for two hours.
After a preset time, the cells were washed twice with 200 μL of ice-cold washing buffer [10 mM HEPES, 5 mM Tris, 140 mM choline chloride, 2 mM KCl, 1 mM CaCl2), 1 mM MgCl2, 100 mM AMG, pH 7.4].
After removing the medium, 40 μL of 10% sodium dodecyl sulfate (SDS) solution was added to lyse the cells, and then the samples were transferred to a measurement plate of a liquid scintillation counter, and 150 μL of OptiPhase Supermix®, an isotope measurement cocktail solution, was added, and the cells were incubated overnight to ensure that the cell solution was homogeneously mixed with the cocktail solution.
[^14C]AMG in the samples was measured using the liquid scintillation counter.
At this time, the inhibitory effect Sigmoid Emax model was used, and the WinNonlin program (ver. 2.0) was utilized. All data values were expressed as the mean±standard deviation (SD) of three independent experiments.

SGLT2 = target: T2, SGLT2 (Homo sapiens, UniProt P31639); experiment: Change in SGLT2 inhibition according to drug pretreatment time (CHO-SGLT2); assay type: cell-based; conditions: for IC50: CHO-SGLT2; for Change in SGLT2 inhibition as exposure time increased: pretreatment 0, 1, 2 h, one-way ANOVA
T2 construct: expressed in transfected cells
T2 sequence (P31639 1-672): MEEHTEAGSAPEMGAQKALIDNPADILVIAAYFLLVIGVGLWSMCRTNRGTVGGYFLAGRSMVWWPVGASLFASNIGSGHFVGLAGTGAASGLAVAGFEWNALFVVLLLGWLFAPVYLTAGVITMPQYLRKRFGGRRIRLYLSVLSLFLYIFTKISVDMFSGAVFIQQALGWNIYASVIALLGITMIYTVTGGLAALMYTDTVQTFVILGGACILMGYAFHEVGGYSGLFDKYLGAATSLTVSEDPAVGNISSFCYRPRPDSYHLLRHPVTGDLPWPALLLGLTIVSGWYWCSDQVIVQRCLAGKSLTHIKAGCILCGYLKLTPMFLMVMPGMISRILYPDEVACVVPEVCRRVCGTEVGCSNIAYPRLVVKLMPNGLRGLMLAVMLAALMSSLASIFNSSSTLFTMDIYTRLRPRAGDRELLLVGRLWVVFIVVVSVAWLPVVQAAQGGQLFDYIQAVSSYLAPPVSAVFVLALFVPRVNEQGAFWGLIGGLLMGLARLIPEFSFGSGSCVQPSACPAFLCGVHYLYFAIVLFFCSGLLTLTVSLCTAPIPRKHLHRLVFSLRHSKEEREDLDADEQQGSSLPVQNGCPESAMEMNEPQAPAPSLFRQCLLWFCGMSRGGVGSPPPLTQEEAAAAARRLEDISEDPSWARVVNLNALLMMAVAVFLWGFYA
From the text: as §1

[3] = IC50 according to pretreatment time (nM), SGLT1, 1 h, 1 h pretreatment in sodium-free buffer
[4] = IC50 according to pretreatment time (nM), SGLT1, 2 h, 2 h pretreatment in sodium-free buffer
[5] = no pretreatment, read-out: IC50 according to pretreatment time (nM), SGLT1, 0 h
[6] = IC50 according to pretreatment time (nM), SGLT2, 1 h, 1 h pretreatment in sodium-free buffer
[7] = IC50 according to pretreatment time (nM), SGLT2, 2 h, 2 h pretreatment in sodium-free buffer
[8] = no pretreatment, read-out: IC50 according to pretreatment time (nM), SGLT2, 0 h

Molecule `OC[C@H]1O[C@@H](c2cc(Cc3ccc(C4CC4)cc3)c(Cl)c3c2CCO3)[C@H](O)[C@@H](O)[C@@H]1O` [Enavogliflozin, (2S,3R,4R,5S,6R)-2-(7-chloro-6 (4-cyclopropylbenzyl)-2,3-dihydrobenzofuran-4-yl)-6-(hydroxymethyl)tetrahydro-2H-pyran-3,4,5-triol] has an IC50 (SGLT1 [1]; [3]) of 889 ± 238 nM, an IC50 (SGLT1 [1]; [4]) of 829 ± 194 nM and an IC50 (SGLT1 [1]; [5]) of 867 ± 163 nM. For the same molecule, the “Change in SGLT1 inhibition as exposure time increased” value (SGLT1 [1]) was “did not show any significant change or increase in inhibition”, the “Glucose tolerance inhibition rate improved compared to the vehicle (blood glucose AUC)” value (normal rats) was 27% and the “Glucose tolerance in OGTT” value (normal rats) was “improved glucose tolerance”. For the same molecule, the IC50 (SGLT1 [2]) was 861 ± 59.4 nM, the IC50 (SGLT2; [6]) was 0.285 ± 0.188 nM and the IC50 (SGLT2; [7]) was 0.519 ± 0.222 nM. The IC50 (SGLT2; [8]) was 0.388 ± 0.119 nM and the “Change in SGLT2 inhibition as exposure time increased” value (SGLT2) was “did not increase or significantly change”.
Molecule `OC[C@H]1O[C@@H](c2cc(Cc3ccc(C4CC4)cc3)c(Cl)c3c2CC(O)O3)[C@H](O)[C@@H](O)[C@@H]1O` (stereo partly drawn) [M1, (2S,3R,4R,5S,6R)-2-(7-chloro-6-(4-cyclopropylbenzyl)-2-hydroxy-2,3-dihydrobenzofuran-4-yl)-6-(hydroxymethyl)tetrahydro-2H-pyran-3,4,5-triol] has an IC50 (SGLT1 [1]; [3]) of 103 ± 22.4 nM, an IC50 (SGLT1 [1]; [4]) of 76.6 ± 1.2 nM and an IC50 (SGLT1 [1]; [5]) of 29.2 ± 13.5 nM. The “Change in SGLT1 inhibition as exposure time increased” value (SGLT1 [1]) was “significantly increased”, the “Glucose tolerance inhibition rate improved compared to the vehicle (blood glucose AUC)” value (normal rats) was 49% and the “Glucose tolerance in OGTT” value (normal rats; 1 mg/kg) was “improved glucose tolerance”. For the same molecule, the “Glucose tolerance in OGTT” value (normal rats; listed as Metabolite M1, 1 mg/kg) was “superior glucose tolerance to enavogliflozin”, the IC50 (SGLT1 [2]) was ~28.4 nM and 28.4 nM and the IC50 (SGLT2; [6]) was 5.24 ± 1.1 nM. For the same molecule, the IC50 (SGLT2; [7]) was 9.95 ± 3.14 nM, the IC50 (SGLT2; [8]) was 8.44 ± 0.77 nM and the “Change in SGLT2 inhibition as exposure time increased” value (SGLT2) was “did not increase or significantly change”.
Work on `OC[C@H]1O[C@@H](c2cc(Cc3ccc(C4(O)CC4)cc3)c(Cl)c3c2CCO3)[C@H](O)[C@@H](O)[C@@H]1O` [M2, (2S,3R,4R,5S,6R)-2-(7-chloro-6-(4-(1-hydroxycyclopropyl)benzyl)-2,3-dihydrobenzofuran-4-yl)-6-(hydroxymethyl)tetrahydro-2H-pyran-3,4,5-triol] yielded an IC50 (SGLT1 [1]; [3]) of 1020 ± 225 nM, an IC50 (SGLT1 [1]; [4]) of 1180 ± 177 nM and an IC50 (SGLT1 [1]; [5]) of 1080 ± 71 nM. For the same molecule, the “Change in SGLT1 inhibition as exposure time increased” value (SGLT1 [1]) was “did not show any significant change or increase in inhibition”, the “Glucose tolerance inhibition rate improved compared to the vehicle (blood glucose AUC)” value (normal rats) was 23% and the “Glucose tolerance in OGTT” value (normal rats; 1 mg/kg) was “improved glucose tolerance”. The IC50 (SGLT1 [2]) was 1220 ± 165 nM, the IC50 (SGLT2; [6]) was 3.63 ± 0.83 nM and the IC50 (SGLT2; [7]) was 3.24 ± 0.81 nM. For the same molecule, the IC50 (SGLT2; [8]) was 2.75 ± 0.36 nM and the “Change in SGLT2 inhibition as exposure time increased” value (SGLT2) was “did not increase or significantly change”.
